Results taken from patent US20240368209A1, “GEMCITABINE ANTICANCER DERIVATIVE AND ANTICANCER PHARMACEUTICAL USE” (ASCENTAWITS PHARMACEUTICALS, LTD., priority 2021, published 2024).

Tested on: HuPrime pancreatic cancer xenograft model PA1222
Experiment: In vivo pharmacodynamic experiment in HuPrime pancreatic cancer PA1222 PDX model
Details: for Tumor volume (x ± S): mean ± standard error
[1] = Group 4, 160 mg/kg i.p. QD×5, 2 days off, 2 weeks off, QD×5, Day 32
[2] = Group 5, 160 mg/kg i.v. Q2D×3 weeks, Day 32

Q: For `CC(C)NP(=O)(OCc1ccc([N+](=O)[O-])c(Oc2ccc(-c3ccc(F)cc3)c(F)c2)c1)OCC1OC(C2N=CC(N)=NC2=O)C(F)(F)C1O` (centres unmarked) [Compound H11], which “Relative tumor volume (x ± S)” value [1] is on record?
A: The value was 2.01 ± 0.41.

Q: What about the “T/C (%)” value [1] of the same molecule?
A: The value was 32.38%.

Q: And the “TGI (%)” value [1]?
A: The value was 67.62%.

Q: What about the “Tumor volume (x ± S)” value [1] of the same molecule?
A: Its value is 202.58 ± 45.40.

Q: And the “Average weight (g) of mice” value (Group 4, 160 mg/kg i.p., Day 0)?
A: Its value is 21.4 g.

Q: And the “Average weight (g) of mice” value (Group 4, 160 mg/kg i.p., Day 1)?
A: Its value is 22.0 g.

Q: What about the “Average weight (g) of mice” value (Group 4, 160 mg/kg i.p., Day 2) of the same molecule?
A: Its value is 21.5 g.

Q: And the “Average weight (g) of mice” value (Group 4, 160 mg/kg i.p., Day 3)?
A: Its value is 22.0 g.

Q: What about the “Average weight (g) of mice” value (Group 4, 160 mg/kg i.p., Day 4) of the same molecule?
A: The value was 21.7 g.

Q: What about the “Average weight (g) of mice” value (Group 4, 160 mg/kg i.p., Day 7) of the same molecule?
A: Its value is 22.3 g.

Q: And the “Average weight (g) of mice” value (Group 4, 160 mg/kg i.p., Day 11)?
A: The value was 22.5 g.

Q: And the “Average weight (g) of mice” value (Group 4, 160 mg/kg i.p., Day 14)?
A: The value was 22.9 g.

Q: And the “Average weight (g) of mice” value (Group 4, 160 mg/kg i.p., Day 18)?
A: The value was 22.7 g.

Q: What about the “Average weight (g) of mice” value (Group 4, 160 mg/kg i.p., Day 21) of the same molecule?
A: The value was 22.9 g.

Q: What about the “Average weight (g) of mice” value (Group 4, 160 mg/kg i.p., Day 22) of the same molecule?
A: The value was 22.6 g.

Q: What about the “Average weight (g) of mice” value (Group 4, 160 mg/kg i.p., Day 23) of the same molecule?
A: Its value is 22.5 g.

Q: And the “Average weight (g) of mice” value (Group 4, 160 mg/kg i.p., Day 24)?
A: Its value is 22.6 g.

Q: What about the “Average weight (g) of mice” value (Group 4, 160 mg/kg i.p., Day 25) of the same molecule?
A: The value was 22.5 g.

Q: What about the “Average weight (g) of mice” value (Group 4, 160 mg/kg i.p., Day 28) of the same molecule?
A: Its value is 22.6 g.

Q: What about the “Average weight (g) of mice” value (Group 4, 160 mg/kg i.p., Day 32) of the same molecule?
A: The value was 23.3 g.

Q: What about the “Tumor volume (mm^3) (x ± S)” value (Group 4, 160 mg/kg i.p., day 0) of the same molecule?
A: Its value is 101.91 mm^3.

Q: What about the “Tumor volume (mm^3) (x ± S)” value (Group 4, 160 mg/kg i.p., day 4) of the same molecule?
A: The value was 105.94 mm^3.

Q: And the “Tumor volume (mm^3) (x ± S)” value (Group 4, 160 mg/kg i.p., day 7)?
A: The value was 96.63 mm^3.

Q: What about the “Tumor volume (mm^3) (x ± S)” value (Group 4, 160 mg/kg i.p., day 11) of the same molecule?
A: The value was 116.07 mm^3.

Q: And the “Tumor volume (mm^3) (x ± S)” value (Group 4, 160 mg/kg i.p., day 14)?
A: The value was 139.61 mm^3.

Q: And the “Tumor volume (mm^3) (x ± S)” value (Group 4, 160 mg/kg i.p., day 18)?
A: The value was 153.86 mm^3.

Q: What about the “Tumor volume (mm^3) (x ± S)” value (Group 4, 160 mg/kg i.p., day 21) of the same molecule?
A: Its value is 188.69 mm^3.

Q: And the “Tumor volume (mm^3) (x ± S)” value (Group 4, 160 mg/kg i.p., day 25)?
A: Its value is 198.68 mm^3.

Q: And the “Tumor volume (mm^3) (x ± S)” value (Group 4, 160 mg/kg i.p., day 28)?
A: Its value is 195.90 mm^3.

Q: What about the “Tumor volume (mm^3) (x ± S)” value (Group 4, 160 mg/kg i.p., day 32) of the same molecule?
A: Its value is 202.58 mm^3.

Q: What about the “weight loss and tolerability during treatment” value (Group 5, 160 mg/kg i.v. Q2D×3 weeks) of the same molecule?
A: Its value is “did not show any significant weight loss, and tolerated well”.

Q: What about the “Relative tumor volume (x ± S)” value [2] of the same molecule?
A: Its value is 0.00 ± 0.00.

Q: What about the “T/C (%)” value [2] of the same molecule?
A: The value was 0.00%.

Q: What about the “TGI (%)” value [2] of the same molecule?
A: Its value is 100%.

Q: What about the “complete tumor inhibition rate” value [2] of the same molecule?
A: Its value is 100%.

Q: What about the “Tumor volume (x ± S)” value [2] of the same molecule?
A: Its value is 0.00 ± 0.00.

Q: And the “Average weight (g) of mice” value (Group 5, 160 mg/kg i.v., Day 0)?
A: Its value is 21.6 g.

Q: What about the “Average weight (g) of mice” value (Group 5, 160 mg/kg i.v., Day 2) of the same molecule?
A: The value was 21.8 g.

Q: What about the “Average weight (g) of mice” value (Group 5, 160 mg/kg i.v., Day 4) of the same molecule?
A: Its value is 21.4 g.

Q: What about the “Average weight (g) of mice” value (Group 5, 160 mg/kg i.v., Day 7) of the same molecule?
A: The value was 20.9 g.

Q: What about the “Average weight (g) of mice” value (Group 5, 160 mg/kg i.v., Day 8) of the same molecule?
A: The value was 21.6 g.

Q: What about the “Average weight (g) of mice” value (Group 5, 160 mg/kg i.v., Day 10) of the same molecule?
A: The value was 21.3 g.

Q: What about the “Average weight (g) of mice” value (Group 5, 160 mg/kg i.v., Day 11) of the same molecule?
A: Its value is 22.1 g.

Q: And the “Average weight (g) of mice” value (Group 5, 160 mg/kg i.v., Day 12)?
A: The value was 22.2 g.

Q: What about the “Average weight (g) of mice” value (Group 5, 160 mg/kg i.v., Day 14) of the same molecule?
A: Its value is 22.0 g.

Q: And the “Average weight (g) of mice” value (Group 5, 160 mg/kg i.v., Day 16)?
A: Its value is 22.3 g.

Q: And the “Average weight (g) of mice” value (Group 5, 160 mg/kg i.v., Day 18)?
A: The value was 22.1 g.

Q: And the “Average weight (g) of mice” value (Group 5, 160 mg/kg i.v., Day 20)?
A: Its value is 22.1 g.

Q: And the “Average weight (g) of mice” value (Group 5, 160 mg/kg i.v., Day 21)?
A: The value was 22.3 g.

Q: What about the “Average weight (g) of mice” value (Group 5, 160 mg/kg i.v., Day 25) of the same molecule?
A: The value was 22.6 g.

Q: What about the “Average weight (g) of mice” value (Group 5, 160 mg/kg i.v., Day 28) of the same molecule?
A: Its value is 22.5 g.

Q: What about the “Average weight (g) of mice” value (Group 5, 160 mg/kg i.v., Day 32) of the same molecule?
A: Its value is 23.2 g.

Q: And the “Tumor volume (mm^3) (x ± S)” value (Group 5, 160 mg/kg i.v., day 0)?
A: The value was 102.11 mm^3.

Q: What about the “Tumor volume (mm^3) (x ± S)” value (Group 5, 160 mg/kg i.v., day 4) of the same molecule?
A: Its value is 98.46 mm^3.

Q: What about the “Tumor volume (mm^3) (x ± S)” value (Group 5, 160 mg/kg i.v., day 7) of the same molecule?
A: The value was 79.97 mm^3.

Q: And the “Tumor volume (mm^3) (x ± S)” value (Group 5, 160 mg/kg i.v., day 11)?
A: The value was 40.67 mm^3.

Q: And the “Tumor volume (mm^3) (x ± S)” value (Group 5, 160 mg/kg i.v., day 14)?
A: Its value is 22.37 mm^3.

Q: And the “Tumor volume (mm^3) (x ± S)” value (Group 5, 160 mg/kg i.v., day 18)?
A: The value was 11.52 mm^3.

Q: And the “Tumor volume (mm^3) (x ± S)” value (Group 5, 160 mg/kg i.v., day 21)?
A: The value was 11.56 mm^3.

Q: What about the “Tumor volume (mm^3) (x ± S)” value (Group 5, 160 mg/kg i.v., day 25) of the same molecule?
A: The value was 6.73 mm^3.

Q: What about the “Tumor volume (mm^3) (x ± S)” value (Group 5, 160 mg/kg i.v., day 28) of the same molecule?
A: Its value is 0.00 mm^3.

Q: What about the “Tumor volume (mm^3) (x ± S)” value (Group 5, 160 mg/kg i.v., day 32) of the same molecule?
A: The value was 0.00 mm^3.
